Source: US9487515B2, “Compounds modulating c-fms and/or c-kit activity and uses therefor” (Plexxikon Inc., priority 2006, dated 2016)

Biological target: c-kit (Homo sapiens, UniProt P10721)
Test: c-kit assays of Examples 40 and 41 (AlphaScreen kinase assays at 10 and 100 μM ATP, 33P-ATP filter assay, M-07e SCF-stimulated proliferation and phosphorylation)

Chain of c-kit (P10721 with tags, fused parts or gaps): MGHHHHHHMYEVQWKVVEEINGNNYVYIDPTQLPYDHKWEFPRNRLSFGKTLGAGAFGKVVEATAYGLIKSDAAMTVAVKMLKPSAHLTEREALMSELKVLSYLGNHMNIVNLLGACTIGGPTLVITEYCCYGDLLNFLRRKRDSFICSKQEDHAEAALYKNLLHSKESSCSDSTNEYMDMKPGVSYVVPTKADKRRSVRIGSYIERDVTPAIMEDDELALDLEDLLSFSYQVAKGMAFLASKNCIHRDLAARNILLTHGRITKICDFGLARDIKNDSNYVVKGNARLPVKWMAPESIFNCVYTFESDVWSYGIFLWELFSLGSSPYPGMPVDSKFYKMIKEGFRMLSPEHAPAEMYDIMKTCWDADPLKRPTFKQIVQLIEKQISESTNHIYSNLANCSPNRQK

SMILES | IC50
COc1ncccc1CNc1ccc(Cc2c[nH]c3ncc(Cl)cc23)cn1 [P-0286, [5-(5-Chloro-1H-pyrrolo[2,3-b]pyridin-3-ylmethyl)-pyridin-2-yl]-(2-methoxy-pyridin-3-ylmethyl)-amine] | < 1000 nM
COc1ncccc1CNc1ccc(Cc2c[nH]c3ncc(C#N)cc23)cn1 [P-0287, 3-{6-[(2-Methoxy-pyridin-3-ylmethyl)-amino]-pyridin-3-ylmethyl}-1H-pyrrolo[2,3-b]pyridine-5-carbonitrile] | < 1000 nM
CCOc1ccccc1CNc1ccc(Cc2c[nH]c3ncccc23)cn1 [P-0288, (2-Ethoxy-benzyl)-[5-(1H-pyrrolo[2,3-b]pyridin-3-ylmethyl)-pyridin-2-yl]-amine] | < 1000 nM
Fc1ccc(C(F)(F)F)cc1CNc1ncc(Cc2c[nH]c3ncc(Cl)cc23)cn1 [P-0289, [5-(5-Chloro-1H-pyrrolo[2,3-b]pyridin-3-ylmethyl)-pyrimidin-2-yl]-(2-fluoro-5-trifluoromethyl-benzyl)-amine] | < 1000 nM
Fc1ccc(CNc2ncc(Cc3c[nH]c4ncc(Cl)cc34)s2)cc1 [P-0290, [5-(5-Chloro-1H-pyrrolo[2,3-b]pyridin-3-ylmethyl)-thiazol-2-yl]-(4-fluoro-benzyl)-amine] | < 1000 nM
Fc1ccc(C(F)(F)F)cc1CNc1ncc(Cc2c[nH]c3ncccc23)cn1 [P-0291, (2-Fluoro-5-trifluoromethyl-benzyl)-[5-(1H-pyrrolo[2,3-b]pyridin-3-ylmethyl)-pyrimidin-2-yl]-amine] | < 1000 nM
Fc1cc(CNc2ncc(Cc3c[nH]c4ncccc34)cn2)cc(C(F)(F)F)c1 [P-0294, (3-Fluoro-5-trifluoromethyl-benzyl)-[5-(1H-pyrrolo[2,3-b]pyridin-3-ylmethyl)-pyrimidin-2-yl]-amine] | < 1000 nM
Cc1cnc2[nH]cc(Cc3ccc(NCc4cc(F)ccc4F)nc3)c2c1 [P-0297, (2,5-Difluoro-benzyl)-[5-(5-methyl-1H-pyrrolo[2,3-b]pyridin-3-ylmethyl)-pyridin-2-yl]-amine] | < 1000 nM
Fc1ccc(F)c(CNc2ccc(Cc3c[nH]c4ncc(Cl)cc34)cn2)c1 [P-0298, [5-(5-Chloro-1H-pyrrolo[2,3-b]pyridin-3-ylmethyl)-pyridin-2-yl]-(2,5-difluoro-benzyl)-amine] | < 1000 nM
Clc1ccccc1CNc1ncc(Cc2c[nH]c3ncccc23)cn1 [P-0301, (2-Chloro-benzyl)-[5-(1H-pyrrolo[2,3-b]pyridin-3-ylmethyl)-pyrimidin-2-yl]-amine] | < 1000 nM
FC(F)(F)c1ccccc1CNc1ncc(Cc2c[nH]c3ncccc23)cn1 [P-0302, [5-(1H-Pyrrolo[2,3-b]pyridin-3-ylmethyl)-pyrimidin-2-yl]-(2-trifluoromethyl-benzyl)-amine] | < 1000 nM
Clc1ccc(CNc2ncc(Cc3c[nH]c4ncccc34)cn2)c(Cl)c1 [P-0305, (2,4-Dichloro-benzyl)-[5-(1H-pyrrolo[2,3-b]pyridin-3-ylmethyl)-pyrimidin-2-yl]-amine] | < 1000 nM
Fc1ccc(CNc2ncc(Cc3c[nH]c4ncccc34)cn2)c(F)c1 [P-0306, (2,4-Difluoro-benzyl)-[5-(1H-pyrrolo[2,3-b]pyridin-3-ylmethyl)-pyrimidin-2-yl]-amine] | < 1000 nM
Clc1ccc(CNc2ncc(Cc3c[nH]c4ncccc34)cn2)cc1 [P-0307, (4-Chloro-benzyl)-[5-(1H-pyrrolo[2,3-b]pyridin-3-ylmethyl)-pyrimidin-2-yl]-amine] | < 1000 nM
FC(F)(F)c1ccc(CNc2ncc(Cc3c[nH]c4ncccc34)cn2)cc1 [P-0308, [5-(1H-Pyrrolo[2,3-b]pyridin-3-ylmethyl)-pyrimidin-2-yl]-(4-trifluoromethyl-benzyl)-amine] | < 1000 nM
Fc1c(CNc2ncc(Cc3c[nH]c4ncccc34)cn2)cccc1C(F)(F)F [P-0309, (2-Fluoro-3-trifluoromethyl-benzyl)-[5-(1H-pyrrolo[2,3-b]pyridin-3-ylmethyl)-pyrimidin-2-yl]-amine] | < 1000 nM
Fc1c(Cl)cccc1CNc1ncc(Cc2c[nH]c3ncccc23)cn1 [P-0311, (3-Chloro-2-fluoro-benzyl)-[5-(1H-pyrrolo[2,3-b]pyridin-3-ylmethyl)-pyrimidin-2-yl]-amine] | < 1000 nM
FC(F)Oc1ccccc1CNc1ncc(Cc2c[nH]c3ncccc23)cn1 [P-0312, (2-Difluoromethoxy-benzyl)-[5-(1H-pyrrolo[2,3-b]pyridin-3-ylmethyl)-pyrimidin-2-yl]-amine] | < 1000 nM
Clc1cccc(CNc2ncc(Cc3c[nH]c4ncccc34)cn2)c1Cl [P-0313, (2,3-Dichloro-benzyl)-[5-(1H-pyrrolo[2,3-b]pyridin-3-ylmethyl)-pyrimidin-2-yl]-amine] | < 1000 nM
Fc1cc(Cl)ccc1CNc1ncc(Cc2c[nH]c3ncccc23)cn1 [P-0314, (4-Chloro-2-fluoro-benzyl)-[5-(1H-pyrrolo[2,3-b]pyridin-3-ylmethyl)-pyrimidin-2-yl]-amine] | < 1000 nM
Fc1ccc(CNc2ncc(Cc3c[nH]c4ncccc34)cn2)c(Cl)c1 [P-0316, (2-Chloro-4-fluoro-benzyl)-[5-(1H-pyrrolo[2,3-b]pyridin-3-ylmethyl)-pyrimidin-2-yl]-amine] | < 1000 nM
Fc1cc(C(F)(F)F)ccc1CNc1ncc(Cc2c[nH]c3ncccc23)cn1 [P-0319, (2-Fluoro-4-trifluoromethyl-benzyl)-[5-(1H-pyrrolo[2,3-b]pyridin-3-ylmethyl)-pyrimidin-2-yl]-amine] | < 1000 nM
Fc1ccc(CNc2ncc(Cc3c[nH]c4ncccc34)cn2)c(C(F)(F)F)c1 [P-0320, (4-Fluoro-2-trifluoromethyl-benzyl)-[5-(1H-pyrrolo[2,3-b]pyridin-3-ylmethyl)-pyrimidin-2-yl]-amine] | < 1000 nM
N#Cc1cnc2[nH]cc(Cc3ccc(NCc4ccccc4OC(F)(F)F)nc3)c2c1 [P-0321, 3-[6-(2-Trifluoromethoxy-benzylamino)-pyridin-3-ylmethyl]-1H-pyrrolo[2,3-b]pyridine-5-carbonitrile] | < 1000 nM
FC(F)(F)Oc1ccccc1CNc1ccc(Cc2c[nH]c3ncccc23)cn1 [P-0322, [5-(1H-Pyrrolo[2,3-b]pyridin-3-ylmethyl)-pyridin-2-yl]-(2-trifluoromethoxy-benzyl)-amine] | < 1000 nM
CCOc1ccccc1CNc1ccc(Cc2c[nH]c3ncc(C#N)cc23)cn1 [P-0323, 3-[6-(2-Ethoxy-benzylamino)-pyridin-3-ylmethyl]-1H-pyrrolo[2,3-b]pyridine-5-carbonitrile] | < 1000 nM
Fc1cnc2[nH]cc(Cc3ccc(NCc4ccccc4C(F)(F)F)nc3)c2c1 [P-0325, [5-(5-Fluoro-1H-pyrrolo[2,3-b]pyridin-3-ylmethyl)-pyridin-2-yl]-(2-trifluoromethyl-benzyl)-amine] | < 1000 nM
COc1cnc2[nH]cc(Cc3ccc(NCc4ccccc4C(F)(F)F)nc3)c2c1 [P-0326, [5-(5-Methoxy-1H-pyrrolo[2,3-b]pyridin-3-ylmethyl)-pyridin-2-yl]-(2-trifluoromethyl-benzyl)-amine] | < 1000 nM

The next lines start with the values.

IC50 | SMILES
< 1000 nM | Fc1cnc2[nH]cc(Cc3ccc(NCc4ccccc4Cl)nc3)c2c1 [P-0327, (2-Chloro-benzyl)-[5-(5-fluoro-1H-pyrrolo[2,3-b]pyridin-3-ylmethyl)-pyridin-2-yl]-amine]
< 1000 nM | COc1cnc2[nH]cc(Cc3ccc(NCc4ccccc4Cl)nc3)c2c1 [P-0328, (2-Chloro-benzyl)-[5-(5-methoxy-1H-pyrrolo[2,3-b]pyridin-3-ylmethyl)-pyridin-2-yl]-amine]
< 1000 nM | Fc1ccc(F)c(CNc2ccc(Cc3c[nH]c4ncc(F)cc34)cn2)c1 [P-0329, (2,5-Difluoro-benzyl)-[5-(5-fluoro-1H-pyrrolo[2,3-b]pyridin-3-ylmethyl)-pyridin-2-yl]-amine]
< 1000 nM | COc1cnc2[nH]cc(Cc3ccc(NCc4cc(F)ccc4F)nc3)c2c1 [P-0330, (2,5-Difluoro-benzyl)-[5-(5-methoxy-1H-pyrrolo[2,3-b]pyridin-3-ylmethyl)-pyridin-2-yl]-amine]
< 1000 nM | COc1ccc(CNc2ccc(Cc3c[nH]c4ncc(F)cc34)cn2)cn1 [P-0331, [5-(5-Fluoro-1H-pyrrolo[2,3-b]pyridin-3-ylmethyl)-pyridin-2-yl]-(6-methoxy-pyridin-3-ylmethyl)-amine]
< 1000 nM | COc1cnc2[nH]cc(Cc3ccc(NCc4ccc(OC)nc4)nc3)c2c1 [P-0332, (6-Methoxy-pyridin-3-ylmethyl)-[5-(5-methoxy-1H-pyrrolo[2,3-b]pyridin-3-ylmethyl)-pyridin-2-yl]-amine]
< 1000 nM | COc1cnc2[nH]cc(Cc3ccc(NCc4c(F)cccc4F)nc3)c2c1 [P-0334, (2,6-Difluoro-benzyl)-[5-(5-methoxy-1H-pyrrolo[2,3-b]pyridin-3-ylmethyl)-pyridin-2-yl]-amine]
< 1000 nM | COc1ccccc1CNc1ccc(Cc2c[nH]c3ncccc23)cn1 [P-0336, (2-Methoxy-benzyl)-[5-(1H-pyrrolo[2,3-b]pyridin-3-ylmethyl)-pyridin-2-yl]-amine]
< 1000 nM | COc1ccccc1CNc1ccc(Cc2c[nH]c3ncc(C#N)cc23)cn1 [P-0337, 3-[6-(2-Methoxy-benzylamino)-pyridin-3-ylmethyl]-1H-pyrrolo[2,3-b]pyridine-5-carbonitrile]
< 1000 nM | FC(F)Oc1ccccc1CNc1ccc(Cc2c[nH]c3ncc(Cl)cc23)cn1 [P-0338, [5-(5-Chloro-1H-pyrrolo[2,3-b]pyridin-3-ylmethyl)-pyridin-2-yl]-(2-difluoromethoxy-benzyl)-amine]
< 1000 nM | N#Cc1cnc2[nH]cc(Cc3ccc(NCc4ccccc4OC(F)F)nc3)c2c1 [P-0339, 3-[6-(2-Difluoromethoxy-benzylamino)-pyridin-3-ylmethyl]-1H-pyrrolo[2,3-b]pyridine-5-carbonitrile]
< 1000 nM | Fc1cccc(F)c1CNc1ccc(Cc2c[nH]c3ncccc23)cn1 [P-0340, (2,6-Difluoro-benzyl)-[5-(1H-pyrrolo[2,3-b]pyridin-3-ylmethyl)-pyridin-2-yl]-amine]
< 1000 nM | Clc1ccc(CNc2ccc(Cc3c[nH]c4ncccc34)cn2)c(Cl)c1 [P-0342, (2,4-Dichloro-benzyl)-[5-(1H-pyrrolo[2,3-b]pyridin-3-ylmethyl)-pyridin-2-yl]-amine]
